This note sets out measurements from EP0378285A1, “Substituted alkenes, processes for their preparation and their use as pesticides” (priority 1989, dated 1990).

Holding throughout (assay type): in vivo
Assay [1] deals with corn rootworm (Diabrotica undecimpunctata). The experiment in a line: Use Example D: activity against eggs/larvae of the corn rootworm. The note with it: Diabrotica undecimpunctata, 168 h; aqueous emulsion 0.1%, 0.2 ml pipetted into soil; 7 days at 25 C; death of eggs or newly hatched larvae. As to the method:
Activity against eggs/larvae of the corn rootworm (Diabrotica undecimpunctata)
The compounds of the invention were made up as aqueous emulsions at a concentration of 0.1%. Into the soil in polystyrene petri dishes, containing maize seedlings (1 seedling/dish) and ca. 50 eggs of the corn rootworm (Diabrotica undecimpunctata) were pipetted 0.2 ml of these preparations. The closed dishes were left at 25 C under extended daylight conditions for 7 days. The criterion for judging the activity was the death of eggs or newly hatched larvae at the end of the test.

For assay [2], the system named is cotton bollworm (Heliothis viriscens). Kind of assay: whole plant or invertebrate. The note with it: 48 h, read-out: activity. As to the method:
Activity against larvae (L1) of the cotton bollworm (Heliothis viriscens)
Compounds of the invention were made up as aqueous preparations at a concentration of 0.1 %. Into these, feed material was dipped for 2 seconds. After drying the feed material was put into into polystyrene petri dishes. After an hour, 10 L1 of the cotton bollworm (Heliothis viriscens) were counted into the dishes. The closed dishes were left for up to 7 days at 25 °C under extended daylight conditions. The % mortality of the larvae after two days indicated the level of activity.

The subject of assay [3] is brown rice-hoppers (Niliparvata lugens Stal). The experiment in a line: Use Example B: activity in prophylactic treatment of leaves against brown rice-hoppers. The note with it: 48 h, read-out: activity. From the text:
Activity in prophylactic treatment of leaves against brown rice-hoppers (Niliparvata lugens Stal)
Rice seedlings (Oryzae sativa L.) in the two leaf stage (about 10 per polystyrene pot of size 6.5 x 6.5 cm) were either untreated or […] until dripping wet, with an aqueous preparation containing 0.1 % of active material. After drying the sprayed leaves, a transparent cylinder was placed over each pot and through an opening, about 30 brown rice-hoppers (Niliparvata lugens) in the 4-5 stage, anaesthetised with carbon dioxide, were introduced into each pot. After closing the opening with a fine mesh screen, the pots were kept for 2 days at 28° C and 16 hours/day of light in the glasshouse, the amount of dead hoppers was determined. The percentage mortality was then estimated and the activity calculated using Abbott's method in comparison with the untreated controls.

For assay [4], the system named is Aphis fabae. The experiment in a line: Activity in prophylactic treatment of leaf discs against Aphis fabae. As to conditions: Aphis fabae, foliar, 48 h; 0.1% aqueous preparation; field bean leaf discs infested with wingless stages; 2 days at 25 C; percentage mortality, Abbott's method. As to the method: From the primary leaf of field beans (Phaseolus vulgaris nanus Aschers.), 24 mm diameter discs were cut. Some of these were treated with a 0.1% aqueous preparations of compounds of the invention and these along side untreated discs were placed on filter papers with the underside of the leaves turned upwards. After drying the test pieces, they were each infested with wingless stages of Aphis fabae (approx 100 per leaf piece). The experiment was replicated 3 times. The leaves were kept on wet filter papers for 2 days at 25 C and 16 hours light per day. The percentage mortality was then estimated and the activity calculated using Abbott's method in comparison with the untreated controls.

The test system of assay [5] is cotton bollworm (Heliothis viriscens). The experiment in a line: Use Example H: ovicidal activity against eggs of the cotton bollworm. The note with it: aqueous preparation 0.1 %; one day old eggs dipped; four days; % inhibition of hatching of the eggs. From the text: Ovicidal activity against eggs of the cotton bollworm (Heliothis viriscens)
The compounds of the invention were made up as aqueous preparations at a concentration of 0.1 %. One day old eggs that had been laid on filter paper by fertilised female moths were dipped in the preparations until they were completely wet and then placed in closed petri dishes under extended daylight conditions for four days. The % inhibition of hatching of the eggs in comparison with untreated eggs indicates the level of activity.

Assay [6] concerns two spotted mite (Tetranychus urticae Koch). The experiment in a line: Use Example C: activity in the prophylactic treatment of feed against the two spotted mite. The note with it: foliar, 0.1 % aqueous preparation, field bean leaf discs, adults and eggs counted after 3 days at 25 C, larvae after a further 7 days, Abbott's method. On the procedure:
Activity in the prophylactic treatment of feed against the two spotted mite (Tetranychus urticae Koch)
From the primary leaf of field beans (Phaseolus vulgaris nanus Aschers.) 14 mm diameter discs were cut. Some of these were treated with a 0.1 % aqueous preparations of compounds of the invention and these along side untreated discs were placed on filter papers with the underside of the leaves turned upwards. After drying the test pieces, they were each infested with six adult female Tetranychus urticae and maintained for 3 days at 25 C and 16 hours light per day. The experiment was replicated 4 times. Dead and alive adults were then counted and removed. Similarly the number of eggs laid were counted. After a further 7 days, the number of living larvae were counted, the activity calculated using Abbott's method in comparison with the untreated controls.

In assay [7] the test system is house fly (Musca domestica). The experiment in a line: Use Example J: activity against house fly. As to conditions: adult houseflies on treated filter papers; 22 C for 24 hours. On the procedure:
Activity against house fly (Musca domestica)
Aliquots (0.7 ml) of acetone solutions or suspensions of test compounds at various concentrations were applied to filter papers (9 cm diameter) placed in the bottom of petri dishes (9 cm diameter) closed by glass lids. After evaporation of solvent, the treated surfaces, together with controls treated with acetone alone, were then infested with adult houseflies, (Musca domestica) and held at 22 C for 24 hours. The percentage mortality of the insects was then recorded.

The test system of assay [8] is corn rootworm (Diabrotica undecimpunctata). The experiment in a line: Use Example E: soil insecticide activity against eggs/larvae of the corn rootworm. As to conditions: aqueous preparation 0.0025%, 5 ml into 50 cm^3 earth, 10 days at 25 C.
Procedure: Soil insecticide activity against eggs/larvae of the corn rootworm (Diabrotica undecimpunctata)
5 ml of these preparations were pipetted into 300 ml clear plastic beakers, containing 50 cm^3 earth and ca. 50 Diabrotica eggs, as well as 2 presoaked maize seeds. The sealed pots were left for 10 days under extended daylight conditions at 25 C. The criterion for judging the activity after 10 days was the larvicidal activity and the root growth of the emerging maize plants in the treated pots in comparison with untreated controls.
Assay [9] has as its system Boophilus microplus. Kind of assay: whole plant or invertebrate. The note with it: Rhipicephalus microplus, 48 h, read-out: concentration causing 50% mortality. On the procedure: Tickicidal activity against Boophilus microplus
9 cm diameter filter papers were impregnated with 1 ml aliquots of acetone solutions of test compound at various concentrations. The papers were allowed to dry and then folded into envelopes in which cattle tick larvae, (Boophilus microplus) were enclosed and held at 25°C and 80% R.H. for 48 hours. The percentage mortality of tick larvae was then recorded and compared with controls.

For assay [10], the system named is Sheep blowfly (Lucilia sericata). The experiment in a line: whole plant or invertebrate. As to conditions: 24 h, read-out: LCso. As to the method:
Activity against Sheep blowfly (Lucilia sericata)
1 ml aliquots of acetone solutions or suspensions, containing test compound at various concentrations, were applied to cotton wool dental rolls (1 cm x 2 cm), contained in glass vials 2 cm diameter x 5 cm long. After drying, the treated materials were then impregnated with 1 ml of nutrient solution, infested with approximately 30 first instar larvae of sheep blow fly (Lucilia sericata), closed by a cotton wool plug and held at 25 C for 24 hours.

The test system of assay [11] is cotton army worm (Spodoptera littoralis). Kind of assay: Use Example F: ovicidal activity against eggs of the cotton army worm. As to conditions: aqueous preparation 0.1 %; one day old eggs dipped; four days; % inhibition of hatching of the eggs. From the text:
Ovicidal activity against eggs of the cotton army worm (Spodoptera littoralis).
The compounds of the invention were made up as aqueous preparations at a concentration of 0.1 %. One day old eggs that had been laid on filter paper by fertilised female moths were dipped in the preparations until they were completely wet and then placed in closed petri dishes in the laboratory under extended daylight conditions for four days. The % inhibition of hatching of the eggs in comparison with untreated eggs indicates the level of activity.

The structures appear in SMILES notation. Some results are limits rather than exact numbers.

Consider `C=C(C)C(C)(C)COCc1ccc(F)c(Nc2ccccc2)c1` [Example 20, 4-(3-anilino-4-fluorobenzyloxy)-2,3,3-trimethyl-1-butene], for which the mortality at 0.1 % in assay [1] was 80 to 100%; in assay [2], 80 to 100%; in assay [3], no less than 80%; in [4] it was no less than 80%; in assay [6], 80 to 100%. In assay [5], the activity is recorded as 80 - 100%.

`C=C(C)C(C)(C)COCc1cccc(Oc2ccccc2)c1` [Example 16, 4-(3-phenoxybenzyloxy)-2,3,3-trimethyl-1-butene]: in assay [7], the LDso entry is “less than 1000 mg/m^2”. In addition, the mortality at 0.0025 % in assay [8] (Diabrotica undecimpunctata, soil, 240 h, read-out: larvicidal activity) lay in the range of 90 to 100%. Besides, the “root growth of the emerging maize plants” value in assay [8] (in comparison with untreated controls) is “good root growth”. Also, the LC50 in [9] was no more than 100 µg/mL; in [10], less than 300 µg/mL. The mortality at 0.1 % in assay [3] is no less than 80%.

On to `C=C(C)C(C)(C)COCc1ccc(F)c(Oc2ccccc2)c1` [Example 5, 4-(4-fluoro-3-phenoxybenzyloxy)-2,3,3-trimethyl-1-butene], for which, in assay [7], the LDso result is “less than 1000 mg/m^2”. The activity in [11] is reported as 80 - 100%. In addition, the mortality at 0.1 % in assay [1] is 80 to 100%; in [2] it was 80 to 100%; in assay [4] it was no less than 80%; in assay [6] it was 80 to 100%. For the same compound, the values for the LC50 in [9] and in assay [10] were no more than 100 µg/mL and less than 300 µg/mL, respectively.
